Reference: patent publication US10597399B2, “Substituted triazolopiperazine PARP inhibitor, preparation method therefor and use thereof” (Shanghai Institute of Materia Medica, Chinese Academy of …, priority 2015, dated 2020)

Legend:
[1] = system: Capan-1 cells (BRCA2 gene defect); test: Inhibition of proliferation of Capan-1 cells (CCK-8 and SRB method); settings: Homo sapiens, CAPAN-1, read-out: Cellular IC50 (nM) Capan-1 (BRCA2gene defect)
[2] = system: MDA-MB-436 cells (BRCA1 gene defect); test: Inhibition of proliferation of MDA-MB-436 cells (CCK-8 and SRB method); settings: Homo sapiens, MDA-MB-436, read-out: Cellular IC50 (nM) MDA-MB-436 (BRCA1gene defect)
[3] = target: PARP-1 (Homo sapiens (Human), UniProt P09874); settings: PARP-1 enzyme
PARP-1, sequence (P09874 whole entry): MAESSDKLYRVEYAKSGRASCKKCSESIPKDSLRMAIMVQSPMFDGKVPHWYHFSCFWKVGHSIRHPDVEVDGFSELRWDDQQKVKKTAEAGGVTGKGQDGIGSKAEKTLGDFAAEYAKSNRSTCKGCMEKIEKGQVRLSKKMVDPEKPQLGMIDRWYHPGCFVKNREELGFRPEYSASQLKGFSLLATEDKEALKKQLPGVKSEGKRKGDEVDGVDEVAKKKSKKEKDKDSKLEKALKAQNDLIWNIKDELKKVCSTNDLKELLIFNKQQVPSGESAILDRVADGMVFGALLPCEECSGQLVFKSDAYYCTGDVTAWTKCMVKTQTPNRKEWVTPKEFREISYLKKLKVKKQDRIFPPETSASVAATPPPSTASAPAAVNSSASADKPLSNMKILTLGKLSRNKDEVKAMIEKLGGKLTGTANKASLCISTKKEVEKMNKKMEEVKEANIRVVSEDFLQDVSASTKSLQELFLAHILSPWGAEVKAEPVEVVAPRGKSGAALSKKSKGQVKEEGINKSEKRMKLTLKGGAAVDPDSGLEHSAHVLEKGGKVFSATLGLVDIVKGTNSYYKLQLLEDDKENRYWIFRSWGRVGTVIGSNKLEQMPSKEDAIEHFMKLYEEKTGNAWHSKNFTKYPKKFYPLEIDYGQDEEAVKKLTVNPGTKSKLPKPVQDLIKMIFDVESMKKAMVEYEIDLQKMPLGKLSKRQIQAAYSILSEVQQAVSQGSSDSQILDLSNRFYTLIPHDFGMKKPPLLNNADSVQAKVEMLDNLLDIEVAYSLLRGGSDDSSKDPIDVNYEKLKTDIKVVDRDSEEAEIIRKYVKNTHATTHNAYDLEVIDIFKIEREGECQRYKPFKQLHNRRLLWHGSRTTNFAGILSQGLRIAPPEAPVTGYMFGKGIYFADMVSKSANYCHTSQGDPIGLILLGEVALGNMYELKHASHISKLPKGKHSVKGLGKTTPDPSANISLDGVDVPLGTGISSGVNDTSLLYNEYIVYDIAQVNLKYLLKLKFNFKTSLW

[4] = system: HCT-15 (colon cancer); test: Proliferation of different tumor cells: HCT-15; settings: for IC50: Homo sapiens
[5] = system: Capan-1/AZD2281 drug resistant cell; test: cells; settings: Homo sapiens
[6] = system: Capan-1 (pancreatic cancer); test: Proliferation of different tumor cells: Capan-1; settings: Homo sapiens
[7] = system: UWB1.289 (ovarian cancer); test: Proliferation of different tumor cells: UWB1.289; settings: for IC50: UWB1289
[8] = system: Capan-1 parental cell; test: Anti-proliferative effect on Capan-1 parental cell; settings: Homo sapiens
[9] = background statement; cited from earlier work
[10] = system: HCC-1937 (breast cancer); test: Proliferation of different tumor cells: HCC-1937; settings: for IC50: Homo sapiens, HCC1937
[11] = system: SW-620 (colon cancer); test: Proliferation of different tumor cells: SW-620; settings: for IC50: Homo sapiens

| IC50 [2] [nM] | Structure (SMILES) | IC50 [1] [nM] | also measured |
| --- | --- | --- | --- |
| < 200 | CC1CN(C(=O)c2cc(Cc3n[nH]c(=O)c4ccccc34)ccc2F)Cc2nnc(C3CCNCC3)n21 (stereo not drawn) [Compound S3] | < 200 | – |
| < 5 | CC1CN(C(=O)c2cc(Cc3n[nH]c(=O)c4ccccc34)ccc2F)Cc2nnc(-c3ncc[nH]3)n21 (stereo not drawn) [Compound S9] | < 20 | – |
| < 20 | CC1CN(C(=O)c2cc(Cc3n[nH]c(=O)c4ccccc34)ccc2F)Cc2nnc(-c3ncccc3F)n21 (stereo not drawn) [Compound S33] | < 20 | – |
| < 5 | CC1CN(C(=O)c2cc(Cc3n[nH]c(=O)c4ccccc34)ccc2F)Cc2nnc(-c3cccs3)n21 (stereo not drawn) [Compound S7] | < 5 | – |
| < 20 | CC1CN(C(=O)c2cc(Cc3n[nH]c(=O)c4ccccc34)ccc2F)Cc2nnc(-c3c[nH]cn3)n21 (stereo not drawn) [Compound S8] | < 20 | – |
| < 5 | CC1CN(C(=O)c2cc(Cc3n[nH]c(=O)c4ccccc34)ccc2F)Cc2nnc(-c3ccccn3)n21 (stereo not drawn) [Compound S13] | < 5 | Ratio IC50 AZD/IC50 S13 [4]: 70; IC50 [4]: 143 nM; IC50 [5]: < 0.256 nM; IC50 [6]: 1.04 nM; Ratio IC50 AZD/IC50 S13 ([7]; UWB1.289): 59; IC50 [7]: 3 nM; IC50 [8]: < 0.256 nM; Ratio IC50 AZD/IC50 S13 ([10]; HCC-1937): 338; IC50 [10]: 21.9 nM; Ratio IC50 AZD/IC50 S13 [11]: 130; IC50 [11]: 45 nM |
| < 5 | CC1CN(C(=O)c2cc(Cc3n[nH]c(=O)c4ccccc34)ccc2F)Cc2nnc(-c3nccs3)n21 (stereo not drawn) [Compound S15] | < 5 | – |
| < 20 | CC1CN(C(=O)c2cc(Cc3n[nH]c(=O)c4ccccc34)ccc2F)Cc2nnc(-c3nccn3C)n21 (stereo not drawn) [Compound S10] | < 20 | – |

The next lines start with the compound.

| Structure (SMILES) | IC50 [2] [nM] | IC50 [1] [nM] | also measured |
| --- | --- | --- | --- |
| CC1CN(C(=O)c2cc(Cc3n[nH]c(=O)c4ccccc34)ccc2F)Cc2nnc(-c3cnn(C)c3)n21 (stereo not drawn) [Compound S14] | < 20 | < 20 | – |
| CC1CN(C(=O)c2cc(Cc3n[nH]c(=O)c4ccccc34)ccc2F)Cc2nnc(-c3ccc(CO)o3)n21 (stereo not drawn) [Compound S18] | < 5 | < 5 | – |
| C[C@@H]1CN(C(=O)c2cc(Cc3n[nH]c(=O)c4ccccc34)ccc2F)Cc2nnc(-c3ccccn3)n21 [S13-(+)] | – | – | activity of (+)-S13 relative to (−)-S13 [3]: twice |
| O=C(c1cc(Cc2n[nH]c(=O)c3ccccc23)ccc1F)N1CCN(C(=O)C2CC2)CC1 [AZD2281, olaparib, reference compound] | ~200 | ~500 | IC50 [4]: > 10000 nM; IC50 [5]: 41100 ± 1590 nM; IC50 [6]: 653 nM; IC50 [7]: 177 nM; IC50 [8]: 2899 ± 17 nM; bioavailability [9]: < 15%; in vivo action time and half-life time [9]: < 1 h; IC50 [10]: 7390 nM; IC50 [11]: 5840 nM |
| CC1CN(C(=O)c2cc(Cc3n[nH]c(=O)c4ccccc34)ccc2F)Cc2nnc(-c3cnccn3)n21 (stereo not drawn) [Compound S20] | < 20 | < 20 | – |
| CC1CN(C(=O)c2cc(Cc3n[nH]c(=O)c4ccccc34)ccc2F)Cc2nnc(-c3ccco3)n21 (stereo not drawn) [Compound S16] | < 5 | < 5 | – |
| CC1CN(C(=O)c2cc(Cc3n[nH]c(=O)c4ccccc34)ccc2F)Cc2nnc(-c3ccsc3)n21 (stereo not drawn) [Compound S12] | < 20 | < 20 | – |
| CC1CN(C(=O)c2cc(Cc3n[nH]c(=O)c4ccccc34)ccc2F)Cc2nnc(-c3cncs3)n21 (stereo not drawn) [Compound S11] | < 20 | < 20 | – |
